Laboratory results published in US9975874B2, “Factor XIa inhibitors” (Merck Sharp & Dohme Corp., priority 2014, dated 2018).

Key:
[1] = biological target: purified human Factor XIa (Homo sapiens (Human), UniProt P03951); experiment: Factor XIa Assay; type: biochemical; details: substrate Z-Gly-Pro-Arg-AFC 100 μM, 40 pM enzyme, pH 7.4; read-out: FXIa IC50
Description: The effectiveness of a compound of the present invention as an inhibitor of Coagulation Factor XIa can be determined using a relevant purified serine protease, and an appropriate synthetic substrate. The rate of hydrolysis of the chromogenic or fluorogenic substrate by the relevant serine protease was measured both in the absence and presence of compounds of the present invention. Assays were conducted at room temperature or at 37° C. […] A decrease in the rate of fluorescence change in the presence of inhibitor is indicative of enzyme inhibition. Such methods are known to one skilled in the art. […]
Factor XIa determinations were made in 50 mM HEPES buffer at pH 7.4 containing 150 mM NaCl, 5 mM CaCl2, and 0.1% PEG 8000 (polyethylene glycol; JT Baker or Fisher Scientific). Determinations were made using purified human Factor XIa at a final concentration of 40 pM (Sekisui Diagnostics) and the synthetic substrate, Z-Gly-Pro-Arg-AFC, TFA salt (Sigma #C0980) at a concentration of 100 μM.
Times required to achieve equilibration between enzyme and inhibitor were determined in control experiments. Initial velocities of product formation in the absence (Vo) or presence of inhibitor (Vi) were measured. Assuming competitive inhibition, and that unity is negligible compared Km/[S], [I]/e, and [I]/e (where [S], [I], and e respectively represent the total concentrations, of substrate, inhibitor and enzyme), the equilibrium constant (Ki) for dissociation of the inhibitor from the enzyme can be obtained from the dependence of Vo/Vi on [I] shown in the following equation.

[2] = biological target: purified Human plasma kallikrein (Homo sapiens (Human), UniProt P03952); experiment: Kallikrein Assay; type: biochemical; details: Plasma kallikrein; substrate Acetyl-K-P-R-AFC, 0.5 nM enzyme, pH 7.4; read-out: PK IC50
Description: The effectiveness of a compound of the present invention as an inhibitor of Kallikrein can be determined using a relevant purified serine protease, and an appropriate synthetic substrate. The rate of hydrolysis of the chromogenic or fluorogenic substrate by the relevant serine protease was measured both in the absence and presence of compounds of the present invention. Assays were conducted at room temperature or at 37° C. […] A decrease in the rate of fluorescence change in the presence of inhibitor is indicative of enzyme inhibition. Such methods are known to one skilled in the art. The results of this assay are expressed as the inhibitory constant, Ki.
Kallikrein determinations were made in 50 mM HEPES buffer at pH 7.4 containing 150 mM NaCl, 5 mM CaCl2, and 0.1% PEG 8000 (polyethylene glycol; Fisher Scientific). Determinations were made using purified Human plasma kallikrein at a final concentration of 0.5 nM (Enzyme Research Laboratories) and the synthetic substrate, Acetyl-K-P-R-AFC (Sigma # C6608) at a concentration of […].
Times required to achieve equilibration between enzyme and inhibitor were determined in control experiments. The reactions were performed under linear progress curve conditions and fluorescence increase measured at 405 Ex/510 Em nm. […] IC50 was determined by inflection point from a four parameter logistic curve fit. Ki was calculated using the Cheng Prusoff equation, Ki=IC50/(1+([S]/Km)).

purified human Factor XIa, sequence (P03951 388-625): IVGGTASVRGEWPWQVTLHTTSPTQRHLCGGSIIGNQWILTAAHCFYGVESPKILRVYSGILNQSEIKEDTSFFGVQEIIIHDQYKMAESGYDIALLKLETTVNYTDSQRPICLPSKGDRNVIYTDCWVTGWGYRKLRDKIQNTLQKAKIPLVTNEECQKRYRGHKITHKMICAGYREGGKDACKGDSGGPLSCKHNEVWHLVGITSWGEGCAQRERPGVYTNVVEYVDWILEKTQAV
purified human Factor XIa, sequence (P03951 19-387 partner): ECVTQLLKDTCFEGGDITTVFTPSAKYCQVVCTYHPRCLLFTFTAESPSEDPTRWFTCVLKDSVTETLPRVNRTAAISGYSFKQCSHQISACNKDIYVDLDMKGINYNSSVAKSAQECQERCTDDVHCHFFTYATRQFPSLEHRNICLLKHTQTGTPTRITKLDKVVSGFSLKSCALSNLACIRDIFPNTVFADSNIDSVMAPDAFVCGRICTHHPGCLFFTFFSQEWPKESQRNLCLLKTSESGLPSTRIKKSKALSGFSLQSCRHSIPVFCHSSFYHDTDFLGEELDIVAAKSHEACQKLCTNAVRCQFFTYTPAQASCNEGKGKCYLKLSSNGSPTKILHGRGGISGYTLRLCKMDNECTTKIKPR
purified Human plasma kallikrein, sequence (P03952 391-638): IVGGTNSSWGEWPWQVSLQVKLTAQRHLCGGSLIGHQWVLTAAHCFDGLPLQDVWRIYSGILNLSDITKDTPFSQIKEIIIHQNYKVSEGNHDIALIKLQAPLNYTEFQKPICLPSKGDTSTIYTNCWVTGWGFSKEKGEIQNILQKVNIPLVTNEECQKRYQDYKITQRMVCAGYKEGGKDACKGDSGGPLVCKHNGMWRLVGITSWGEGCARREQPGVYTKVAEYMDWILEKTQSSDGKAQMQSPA
purified Human plasma kallikrein, sequence (P03952 20-390 partner): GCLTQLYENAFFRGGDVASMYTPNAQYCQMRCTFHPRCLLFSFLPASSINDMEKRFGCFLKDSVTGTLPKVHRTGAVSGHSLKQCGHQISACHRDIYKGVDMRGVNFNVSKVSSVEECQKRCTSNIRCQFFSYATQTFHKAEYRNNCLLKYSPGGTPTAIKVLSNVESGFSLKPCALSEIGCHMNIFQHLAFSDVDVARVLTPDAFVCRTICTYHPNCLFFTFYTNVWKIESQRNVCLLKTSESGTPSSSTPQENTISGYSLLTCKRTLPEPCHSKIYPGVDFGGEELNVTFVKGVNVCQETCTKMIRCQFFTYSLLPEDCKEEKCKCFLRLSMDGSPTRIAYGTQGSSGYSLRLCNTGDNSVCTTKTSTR

Compound: COC(=O)Nc1ccc(-c2cccc(C(Cc3ccccc3)c3ccc(-c4cc(Cl)ccc4-n4cnnn4)c[n+]3[O-])c2)cc1 (racemic) [Example 1, (±)-5-(5-Chloro-2-(1H-tetrazol-1-yl)phenyl)-2-(1-(4′-((methoxycarbonyl)amino)-[1,1′-biphenyl]-3-yl)-2-phenylethyl)pyridine 1-oxide]
- IC50 [1]: 0.634 nM
- IC50 [2]: 24.4 nM

Compound: O=C(O)c1cccc(-c2cccc(C(Cc3ccccc3)c3ccc(-c4cc(Cl)ccc4-n4cnnn4)c[n+]3[O-])c2)c1 (racemic) [Example 7, 2-(1-(3′-carboxy-[1,1′-biphenyl]-3-yl)-2-phenylethyl)-5-(5-chloro-2-(1H-tetrazol-1-yl)phenyl)pyridine 1-oxide]
- IC50 [1]: 0.459 nM
- IC50 [2]: 77.7 nM

Compound: O=C(O)c1ccc(-c2cccc(C(Cc3ccccc3)c3ccc(-c4cc(Cl)ccc4-n4cnnn4)c[n+]3[O-])c2)cc1 (racemic) [Example 10]
- IC50 [1]: 19.1 nM
- IC50 [2]: 705 nM

Compound: O=C(O)c1cccc(-c2cc(F)cc(C(Cc3ccccc3)c3ccc(-c4cc(Cl)ccc4-n4cnnn4)c[n+]3[O-])c2)c1 (racemic) [Example 13]
- IC50 [1]: 0.343 nM
- IC50 [2]: 12 nM

Compound: O=C(O)c1cccc(-c2cccc(C(CC3CC3)c3ccc(-c4cc(Cl)ccc4-n4cnnn4)c[n+]3[O-])c2)c1 (racemic) [Example 17]
- IC50 [1]: 12 nM
- IC50 [2]: 543 nM

Compound: [O-][n+]1cc(-c2cc(Cl)ccc2-n2cnnn2)ccc1C(Cc1ccccc1)c1cccc(C2CCNCC2)c1 (racemic) [Example 20, 5-[5-chloro-2-(1H-tetrazol-1-yl)phenyl]-2-[2-phenyl-1-(3-piperidin-4-ylphenyl)ethyl] pyridine 1-oxide]
- IC50 [1]: 216 nM

Compound: CNC(=O)N1CCC(c2cccc(C(Cc3ccccc3)c3ccc(-c4cc(Cl)ccc4-n4cnnn4)c[n+]3[O-])c2)CC1 (racemic) [Example 21, 4-[3-(1-{5-[5-chloro-2-(1H-tetrazol-1-yl)phenyl]-1-oxidopyridin-2-yl}-2-phenylethyl)phenyl]-N-methyl piperidine-1-carboxamide]
- IC50 [1]: 10.2 nM
- IC50 [2]: 496 nM

Compound: CS(=O)(=O)N1CCC(c2cccc(C(Cc3ccccc3)c3ccc(-c4cc(Cl)ccc4-n4cnnn4)c[n+]3[O-])c2)CC1 (racemic) [Example 22, 5-[5-chloro-2-(1H-tetrazol-1-yl)phenyl]-2-(1-{3-[1-(methylsulfonyl)piperidin-4-yl]phenyl}-2-phenylethyl) pyridine 1-oxide]
- IC50 [1]: 59.4 nM
- IC50 [2]: 1040 nM

Compound: COC(=O)N1CCC(c2cccc(C(Cc3ccccc3)c3ccc(-c4cc(Cl)ccc4-n4cnnn4)c[n+]3[O-])c2)CC1 (racemic) [Example 23, methyl 4-[3-(1-{5-[5-chloro-2-(1H-tetrazol-1-yl)phenyl]-1-oxidopyridin-2-yl}-2-phenylethyl)phenyl] piperidine-1-carboxylate]
- IC50 [1]: 85.9 nM

Compound: CCNC(=O)N1CCC(c2cccc(C(Cc3ccccc3)c3ccc(-c4cc(Cl)ccc4-n4cnnn4)c[n+]3[O-])c2)CC1 (racemic) [Example 24, 4-[3-(1-{5-[5-chloro-2-(1H-tetrazol-1-yl)phenyl]-1-oxidopyridin-2-yl}-2-phenylethyl)phenyl]-N-ethylpiperidine-1-carboxamide]
- IC50 [1]: 19 nM
- IC50 [2]: 714 nM

Compound: O=C(O)c1ccc(-c2cccc(C(Cc3ccccc3)c3ccc(-c4cc(Cl)ccc4-n4cnnn4)c[n+]3[O-])c2)cc1 (single isomer, unassigned) [Example 11]
- IC50 [1]: 14 nM
- IC50 [2]: 276 nM

Compound: O=C(O)c1ccc(-c2cccc(C(Cc3ccccc3)c3ccc(-c4cc(Cl)ccc4-n4cnnn4)c[n+]3[O-])c2)cc1 (single isomer, unassigned) [Example 12]
- IC50 [1]: 3500 nM

Compound: COC(=O)Nc1ccc(-c2cccc([C@@H](Cc3ccccc3)c3ccc(-c4cc(Cl)ccc4-n4cnnn4)c[n+]3[O-])c2)cc1 [Example 2, (R)-5-(5-Chloro-2-(1H-tetrazol-1-yl)phenyl)-2-(1-(4′-((methoxycarbonyl)amino)-[1,1′-biphenyl]-3-yl)-2-phenylethyl)pyridine 1-oxide]
- IC50 [1]: 424 nM

Compound: CS(=O)(=O)c1ccc(-c2cccc([C@@H](Cc3ccccc3)c3ccc(-c4cc(Cl)ccc4-n4cnnn4)c[n+]3[O-])c2)cc1 [Example 5]
- IC50 [1]: 10000 nM

Compound: O=C(O)c1cccc(-c2cc(F)cc([C@@H](Cc3ccccc3)c3ccc(-c4cc(Cl)ccc4-n4cnnn4)c[n+]3[O-])c2)c1 [Example 15]
- IC50 [1]: 232 nM

Compound: O=C(O)c1cccc(-c2cccc(C(CC3CC3)c3ccc(-c4cc(Cl)ccc4-n4cnnn4)c[n+]3[O-])c2)c1 (stereo not shown) [Example 19]
- IC50 [1]: 1000 nM

Compound: CC(C)(C)OC(=O)N1CCC(c2cccc([C@@H](Cc3ccccc3)c3ccc(-c4cc(Cl)ccc4-n4cnnn4)c[n+]3[O-])c2)CC1 [Example 25, tert-butyl 4-{3-[(1R)-1-{5-[5-chloro-2-(1H-tetrazol-1-yl)phenyl]-1-oxidopyridin-2-yl}-2-phenylethyl]phenyl} piperidine-1-carboxylate]
- IC50 [1]: 1000 nM

Compound: CC(C)(C)OC(=O)N1CCC(c2cccc([C@H](Cc3ccccc3)c3ccc(-c4cc(Cl)ccc4-n4cnnn4)c[n+]3[O-])c2)CC1 [Example 26, tert-butyl 4-{3-[(1S)-1-{5-[5-chloro-2-(1H-tetrazol-1-yl)phenyl]-1-oxidopyridin-2-yl}-2-phenylethyl]phenyl} piperidine-1-carboxylate]
- IC50 [1]: 247 nM

Compound: CCNC(=O)N1CCC(c2cccc([C@@H](Cc3ccccc3)c3ccc(-c4cc(Cl)ccc4-n4cnnn4)c[n+]3[O-])c2)CC1 [Example 27, 4-{3-[(1R)-1-{5-[5-chloro-2-(1H-tetrazol-1-yl)phenyl]-1-oxidopyridin-2-yl}-2-phenylethyl]phenyl}-N-ethyl-piperidine-1-carboxamide]
- IC50 [1]: 1000 nM

Compound: O=C(C(F)F)N1CCC(c2cccc([C@H](Cc3ccccc3)c3ccc(-c4cc(Cl)ccc4-n4cnnn4)c[n+]3[O-])c2)CC1 [Example 37, 5-[5-chloro-2-(1H-tetrazol-1-yl)phenyl]-2-[(1S)-1-{3-[1-(difluoroacetyl)piperidin-4-yl]phenyl}-2-phenylethyl] pyridine 1-oxide]
- IC50 [2]: 536 nM

Compound: CCCOC(=O)N1CCC(c2cccc([C@H](Cc3ccccc3)c3ccc(-c4cc(Cl)ccc4-n4cnnn4)c[n+]3[O-])c2)CC1 [Example 41, propyl 4-{3-[(1S)-1-{5-[5-chloro-2-(1H-tetrazol-1-yl)phenyl]-1-oxidopyridin-2-yl}-2-phenylethyl]phenyl} piperidine-1-carboxylate]
- IC50 [1]: 131 nM

Compound: CC(C)COC(=O)N1CCC(c2cccc([C@H](Cc3ccccc3)c3ccc(-c4cc(Cl)ccc4-n4cnnn4)c[n+]3[O-])c2)CC1 [Example 42, 2-methylpropyl 4-{3-[(1S)-1-{5-[5-chloro-2-(1H-tetrazol-1-yl)phenyl]-1-oxidopyridin-2-yl}-2-phenylethyl]phenyl} piperidine-1-carboxylate]
- IC50 [1]: 557 nM

Compound: O=C(OCCF)N1CCC(c2cccc([C@H](Cc3ccccc3)c3ccc(-c4cc(Cl)ccc4-n4cnnn4)c[n+]3[O-])c2)CC1 [Example 43, 2-fluoroethyl 4-{3-[(1S)-1-{5-[5-chloro-2-(1H-tetrazol-1-yl)phenyl]-1-oxidopyridin-2-yl}-2-phenylethyl]phenyl} piperidine-1-carboxylate]
- IC50 [1]: 63.4 nM

Compound: O=C(OCC1CC1)N1CCC(c2cccc([C@H](Cc3ccccc3)c3ccc(-c4cc(Cl)ccc4-n4cnnn4)c[n+]3[O-])c2)CC1 [Example 44, cyclopropyl-methyl 4-{3-[1S)-1-{5-[5-chloro-2-(1H-tetrazol-1-yl)phenyl]-1-oxidopyridin-2-yl}-2-phenylethyl] phenyl} piperidine-1-carboxylate]
- IC50 [1]: 184 nM

Compound: O=C(OCC(F)(F)F)N1CCC(c2cccc([C@H](Cc3ccccc3)c3ccc(-c4cc(Cl)ccc4-n4cnnn4)c[n+]3[O-])c2)CC1 [Example 46, 2,2,2-trifluoroethyl 4-{3-[(1S)-1-{5-[5-chloro-2-(1H-tetrazol-1-yl)phenyl]-1-oxidopyridin-2-yl}-2-phenylethyl]phenyl} piperidine-1-carboxylate]
- IC50 [1]: 478 nM
